Patent US20210309631A1, “SALT OF CYCLOHEXANE DERIVATIVE” (priority 2018, published 2021)
Where two headings read alike, the source gives them in different places.

Assays:
[1] = Crystal form stability on heating (XRPD before and after heating); type: physicochemical
[2] = In vivo individual difference analysis: individual plasma concentration versus time in rats (Example 8); design: species or system SD rats; conditions: intragastric 1 mg/kg; for Plasma Concentrations of Compound of Formula I: listed as Hydrochloride Salt of Compound of Formula I
Experimental: Compound of Formula I and salts thereof (sulfate, hydrochloride salt, phosphate, maleate), supplied by Shanghai Jingxin Biopharmaceutical Co., Ltd. • Strain: SD rats; Gender: male; Body weight: about 250 grams; Source: shanghai Jiesijie Experimental Animal Co., Ltd Route: single intragastric administration; Capacity: measured in 10 mL/kg body weight Preparation: weighing appropriate amount of the free base or salt of the compound of Formula I, adding a small amount of 0.5% CMC-Na to grind, adding 0.5% CMC-Na to the volume. The concentration is measured as the base. 20 SD rats were divided into 5 groups with 4 rats in each group, fasted for 12 h and drank freely before administration. […] The blood was anticoagulated with 1% heparin, the plasma was separated by 8000 rpm centrifugation for 4 min and stored at -40° C. for testing. LC-MS/MS Method. Pharmacokinetic parameters after administration in rats were calculated using a non-compartmental model of DAS 2.0 software.

[3] = solubility in water; type: physicochemical
[4] = Plasma pharmacokinetics in SD rats after single intragastric administration (Example 7); type: in vivo; conditions: intragastric 1 mg/kg; for MRT inf: read-out: MRT0-∞
Experimental: The in vivo absorption process and characteristics of the free base and four salts thereof (sulfate, hydrochloride salt, phosphate, maleate) of compound (I) in rats were studied. The pharmacokinetics of a single intragastric administration of 1 mg/kg of a compound of Formula I and four salts thereof (calculated by free base concentration in salt form) were studied in SD rats.
SD rats were given a single intragastric administration of 1 mg/kg free base of Example 1 and four salts thereof (including hydrochloride salt from Example 2, sulfate from Example 3, phosphate from Example 4 and maleate from Example 5). There were 4 male rats in each group. The concentration of the compound of Formula I in plasma was determined, and the pharmacokinetic parameters were calculated according to the concentration-time curve.

[5] = Hygroscopicity (DVS) experiment, 25° C./80% relative humidity; type: physicochemical; conditions: for Hygroscopicity / Vapor sorption: 25° C./80% relative humidity; for hygroscopicity (summary in words): within one week
Experimental: Dynamic vapor sorption curves were collected on a DVS Intrinsic by SMS (Surface Measurement Systems).
20 mg sample of the crystal forms of the Examples and Comparative Examples are placed in the environment of 25° C./80% relative humidity for a dynamic vapor sorption (DVS) test, and the test results […] are shown in Table 5.

[6] = male, SD, rat, plasma, po, 1 mg/kg, Mean ± SD, non-compartmental model
[7] = male, SD, rat, plasma, po, 1 mg/kg, Mean ± SD, non-compartmental model, read-out: Tmax
[8] = DVS, listed as Example 2 hydrochloride salt
[9] = Mean ± SD, non-compartmental model, listed as Phosphate
[10] = DVS, listed as Example 4 phosphate

## CN(C)C(=O)N[C@H]1CC[C@H](CCN2CCN(c3cccc4ccsc34)CC2)CC1 [Comparative Example 12, N′-[trans-4-[2-[7-(benzo[b]thiophene)-7-piperazinyl]ethyl]cyclohexyl]-N,N-dimethylurea]
[1]; compared with maleate Form A, after being heated
  stability of the crystal form: lower than that of maleate Form A
[1]; heated to 150° C. and cooled to room temperature, XRPD
  crystal form after heating: turned to maleate Form A

## CN(C)C(=O)N[C@H]1CC[C@H](CCN2CCN(c3cccc4ccsc34)CC2)CC1 [Example 2, N′-[trans-4-[2-[7-(benzo[b]thiophene)-7-piperazinyl]ethyl]cyclohexyl]-N,N-dimethylurea]
[2]; 0.333 h after administration, Mean ± SD
  Plasma Concentrations of Compound of Formula I: 29.4 ± 16.4 ng/mL
[2]; 0.333 h after administration, rat 1♂
  Plasma Concentrations of Compound of Formula I: 37.6 ng/mL
[2]; 0.333 h after administration, rat 2♂
  Plasma Concentrations of Compound of Formula I: 25.9 ng/mL
[2]; 0.333 h after administration, rat 3♂
  Plasma Concentrations of Compound of Formula I: 8.18 ng/mL
[2]; 0.333 h after administration, rat 4♂
  Plasma Concentrations of Compound of Formula I: 45.9 ng/mL
[2]; 0.5 h after administration, Mean ± SD
  Plasma Concentrations of Compound of Formula I: 35.1 ± 15.6 ng/mL
[2]; 0.5 h after administration, rat 1♂
  Plasma Concentrations of Compound of Formula I: 48.3 ng/mL
[2]; 0.5 h after administration, rat 2♂
  Plasma Concentrations of Compound of Formula I: 30.6 ng/mL
[2]; 0.5 h after administration, rat 3♂
  Plasma Concentrations of Compound of Formula I: 15.0 ng/mL
[2]; 0.5 h after administration, rat 4♂
  Plasma Concentrations of Compound of Formula I: 46.4 ng/mL
[2]; 1 h after administration, rat 1♂
  Plasma Concentrations of Compound of Formula I: 32.4 ng/mL
[2]; 1 h after administration, rat 2♂
  Plasma Concentrations of Compound of Formula I: 25.3 ng/mL
[2]; 1 h after administration, rat 3♂
  Plasma Concentrations of Compound of Formula I: 20.8 ng/mL
[2]; 1 h after administration, rat 4♂
  Plasma Concentrations of Compound of Formula I: 42.7 ng/mL
[3]; listed as hydrochloride salt Form B
  solubility in water: greater than 4.6 mg/ml
[4]; [6]
  AUC: 96.9 ± 29.3 ng·h/mL
  AUC(0-inf): 99.1 ± 28.9 ng·h/mL
  Cmax: 36.5 ± 13.1 ng/mL
  half-life: 4.72 ± 2.66 h
  MRT inf: 4.27 ± 2.2 h
[4]; [7]
  Tmax: 0.625 ± 0.25 h
[5]; [8]
  Hygroscopicity: Almost no
  Vapor sorption: 0.21%
[5]; DVS
  hygroscopicity (summary in words): almost no hygroscopicity or slight hygroscopicity

## CN(C)C(=O)N[C@H]1CC[C@H](CCN2CCN(c3cccc4ccsc34)CC2)CC1 [Example 4, N′-[trans-4-[2-[7-(benzo[b]thiophene)-7-piperazinyl]ethyl]cyclohexyl]-N,N-dimethylurea]
[3]; listed as phosphate Form A
  solubility in water: greater than 7.6 mg/ml
[4]; [9]
  MRT0-∞: 3.06 ± 0.434 h
  Tmax: 0.833 ± 0.333 h
  t1/2: 3.25 ± 1.23 h
[5]; [10]
  Hygroscopicity: Slight
  Vapor sorption: 0.61%

## CN(C)C(=O)N[C@H]1CC[C@H](CCN2CCN(c3cccc4ccsc34)CC2)CC1.O=C(O)/C=C\C(=O)O [Example 5, N′-[trans-4-[2-[7-(benzo[b]thiophene)-7-piperazinyl]ethyl]cyclohexyl]-N,N-dimethylurea]
[2]; compared with other salts
  individual difference of plasma concentration: smallest
[3]
  solubility: > 2600 µg/mL
[4]; compared with other salts
  bioavailability (in words): highly bioavailable
  half-life (in words): relatively long half-life
[4]; [6]
  AUC: 124 ± 5.79 ng·h/mL
  AUC(0-inf): 125 ± 7 ng·h/mL
  Cmax: 45.4 ± 2.81 ng/mL
  half-life: 4.67 ± 2.17 h
  MRT inf: 3.07 ± 0.531 h
[4]; [7]
  Tmax: 0.75 ± 0.289 h
[5]; DVS
  hygroscopicity compared with other salts: less hygroscopic than other salts
  Hygroscopicity: Almost no
  Vapor sorption: 0.12%
  hygroscopicity (summary in words): almost no hygroscopicity or slight hygroscopicity
[5]; after DVS testing
  The crystal form changes after DVS testing or not: No
